According to patent US20240150396A1 (The Texas A&M University System, priority 2021, published 2024):
Several values for one entry are separate records, joined by “and”; a condition that tells them apart may be missing. Equal values may be shown once. Read-outs that look alike come from different tables or passages of the source. Non-standard residues stand in square brackets, D forms with d. Residues, ends and D or L forms follow the SMILES beside them. *: point of attachment. hPhe = N[CH](CCc1ccccc1)C(=O)O; 4Pal = N[CH](Cc1ccncc1)C(=O)O; AMC = Cc1cc(=O)oc2cc(N*)ccc12; Cbz = O=C(OCc1ccccc1)*

Key:
[1] = molecular target: T1, cruzain (Trypanosoma cruzi, UniProt P25779); test: Kinetic parameters of peptide substrates for cruzain; assay type: biochemical; conditions: for Km / kcat / kcat/Km: pH 7.5, 25° C., 10% DMSO; for kcat rel: relative to Cbz-Phe-Arg-AMC
Description: (§1) All enzyme assays were performed at 25° C. Initial rates of the peptidolytic reaction catalyzed by cruzain were measured by monitoring the fluorescence generated by cleavage of the dipeptide-AMC bond. Assays were conducted in 96-well plates (Greiner; flat-bottom, clear black plates) in a total volume of 250 μL, containing either 50 mM MES (pH 7.5), 50 mM TAPSO, 100 mM DEA, 1 mM CHAPS, 1 mM Na2EDTA, 5 mM DTT, and 10% DMSO (v/v) or 50 mM sodium acetate (pH 5.5), 50 mM MES, 100 mM TEA, 1 mM CHAPS, 1 mM Na2EDTA, 5 mM DTT, and 10% DMSO (v/v). Substrates were dissolved in 100% DMSO and were then diluted 10-fold such that when added to reaction mixtures, final DMSO concentration was 10% (v/v). Reactions were initiated with the addition of 1-10 μL of cruzain (final concentrations: 0.1-3.0 nM (preincubation studies)). Fluorescence was measured on either a SpectraMax M5 (Molecular Devices) or a Synergy HTX (BioTek, Winooski, VT) microplate reader (λex=360 nm, λem=460 nm). Initial rates were determined from continuous kinetic time courses and calculated from the earliest time points, typically at less than 10 min.
Initial velocity data for cruzain-catalyzed reactions of fluorogenic peptide substrates were determined by fitting to eq 1 using GraphPad Prism 6.0 or SigmaPlot 12.0. For eq 1, kcat is the turnover number, [E]t is the concentration of active sites of cruzain, and Ka is the Michaelis constant for the substrate A. Cruzain concentrations were determined by spectrophotometric analysis of purified sample solutions as described.^44

[2] = molecular target: T1, cruzain; test: biochemical; conditions: pH 7.5; for kinact/KI: irreversible inactivation
Description: as §1, with “Reactions were initiated with the addition of 1-10 μL of cruzain (final concentrations: 0.1-3.0 nM (preincubation studies)).” left out
(2) Enzyme and compound were preincubated over extended periods of time, and then aliquots were removed and diluted 50-fold to 100-fold into reaction mixtures containing 10 μM Cbz-Phe-Arg-AMC, followed by the assessment of the resulting time courses.
Data for time-dependent inhibition were fitted by several methods.
Values of kobs versus [inhibitor] were then replotted and fitted to eq 4 for which k3 and k4 represent the respective rates of formation and dissolution of the EI* complex as depicted in FIG. 9.
In addition, time-course data were fitted globally by two methods. First, expressions for vs, vi, and kobs were substituted into eq 3 to generate eq 6, which was used to fit time-course data at all concentrations of inhibitors simultaneously. Second, time-course data were fitted using KinTek Explorer as either a single-binding step model with the two kinetic parameters k3/Ki and k4 or a two-step binding mechanism as shown in FIG. 9 from which rate constants k1-k4 are determined (Supporting Information).
Enzyme Assays. The preparation of cruzain and 3CL^pro were described in previous publications.^8, 34 The evaluation of inhibitors was modified from our lab protocol and described briefly as follows.^35 All enzyme assays were conducted in 96-well, clear bottom, black plates at 25° C., and fluorescence emanating from product formation was measured using either a SpectraMax M5 (Molecular Devices) or a Synergy HTX (Biotek) microplate reader, with excitation at λex=360 nm and emission at λem=460 nm. […] Reactions were started with addition of enzyme (typically, to a final concentration of 0.2 nM for cruzain or 40 nM for 3CL^pro), and the time courses were recorded for 0.5-1 h.
Kinetic Data Analysis. All time-course data were fitted to eq. 1, wherein P is the fluorescence generated by formation of AMC or liberated ACC, C is the background constant, vi and vs are respectively initial-state and steady-state reaction rates, t is time, and kobs is the observed rate of conversion of the initial inhibited rate to the final inhibited rate.^46
Overall inhibition constants (Ki* values) were obtained by fitting vs/v0 to eq. 4, wherein vs and v0 are steady-state reaction rates in the presence and absence of inhibitor respectively, [S] and [I] represent the fixed concentration of substrate and variable inhibitor, Km is the Michaelis constant of the substrate.

[3] = apparent tight-binding inhibition constant, 25° C., read-out: Ki*
[4] = apparent initial inhibition constant, 25° C., read-out: Ki
[5] = obtained >10 minutes following initiation of reaction by addition of enzyme, read-out: Ki* Cruzain

T1 sequence (P25779 123-467 limits assumed): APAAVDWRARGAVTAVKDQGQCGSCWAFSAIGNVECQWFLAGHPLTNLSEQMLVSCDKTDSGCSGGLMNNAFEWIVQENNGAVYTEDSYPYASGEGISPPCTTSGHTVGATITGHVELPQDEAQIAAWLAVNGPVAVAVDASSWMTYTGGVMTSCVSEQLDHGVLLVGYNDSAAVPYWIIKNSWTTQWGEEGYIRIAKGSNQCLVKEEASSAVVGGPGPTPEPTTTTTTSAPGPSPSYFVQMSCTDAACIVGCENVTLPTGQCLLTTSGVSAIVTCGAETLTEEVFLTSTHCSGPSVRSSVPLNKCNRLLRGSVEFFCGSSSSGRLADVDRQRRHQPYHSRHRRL

Row | Molecule | Km [1] | kcat [1] | kcat/Km [1] | kcat rel [1] | Ki [2, 3] | Ki [2, 4] | also measured
1 | Cc1cc(=O)oc2cc(NC(=O)[C@H](Cc3ccccc3)NC(=O)[C@H](Cc3ccccc3)NC(=O)OCc3ccccc3)ccc12 [Compound S9, Cbz-Phe-Phe-AMC] (Cbz-Phe-Phe-{AMC}) | 0.34 µM | 0.26 ± 0.01 s⁻¹ | 800000 ± 200000 M⁻¹ s⁻¹ | 0.03 | – | – | –
2 | CN1CCN(C(=O)N[C@@H](Cc2ccccc2)C(=O)N[C@H](/C=C/c2ccccn2)CCc2ccccc2)CC1 [Compound 14, 4-Methyl-N—((S)-1-oxo-3-phenyl-1-(((S,E)-5-phenyl-1-(pyridin-2-yl)pent-1-en-3-yl)amino)propan-2-yl)piperazine-1-carboxamide] | – | – | – | – | 3.4 µM | – | –
3 | O=C(N[C@@H](Cc1ccccc1)C(=O)N[C@H](/C=C/c1ccncn1)Cc1ccccc1)OCc1ccccc1 [Compound 23, Benzyl ((S)-1-Oxo-3-phenyl-1-(((S,E)-1-phenyl-4-(pyrimidin-4-yl)-but-3-en-2-yl)amino)propan-2-yl)carbamate] | – | – | – | – | 1.14 ± 0.07 µM | 10.8 ± 1.4 µM | –
4 | O=C(N[C@@H](Cc1ccccc1)C(=O)N[C@H](/C=C/S(=O)(=O)c1ccccc1)Cc1ccccc1)OCc1ccccc1 [Compound 1] | – | – | – | – | – | – | Ki [2, 5]: 0.0036 µM
5 | NC(=O)/C=C/[C@H](CCc1ccccc1)NC(=O)[C@H](Cc1ccccc1)NC(=O)OCc1ccccc1 [Compound 3, Benzyl ((S)-1-(((S,E)-6-Amino-6-oxo-1-phenylhex-4-en-3-yl)-amino)-1-oxo-3-phenylpropan-2-yl)carbamate] | – | – | – | – | – | 3 ± 1 µM | kinact/KI ([2]; 25° C.): 1700 ± 500 M⁻¹ s⁻¹
6 | CN1CCN(C(=O)N[C@@H](Cc2ccccc2)C(=O)N[C@H](/C=C/C(N)=O)CCc2ccccc2)CC1 [Compound 4, N—((S)-1-(((S,E)-6-Amino-6-oxo-1-phenylhex-4-en-3-yl)amino)-1-oxo-3-phenylpropan-2-yl)-4-methylpiperazine-1-carboxamide] | – | – | – | – | – | 3.4 ± 0.4 µM | kinact/KI ([2]; 25° C.): 1900 ± 200 M⁻¹ s⁻¹
7 | O=C(N[C@@H](Cc1ccccc1)C(=O)N[C@H](CO)Cc1ccccc1O)OCc1ccccc1 [Compound 51] | – | – | – | – | – | – | Ki [2, 5]: > 10 µM
8 | NC(=O)/C=C/[C@H](Cc1ccccc1)NC(=O)[C@H](Cc1ccccc1)NC(=O)OCc1ccccc1 [Compound 2, Benzyl ((S)-1-(((S,E)-5-Amino-5-oxo-1-phenylpent-3-en-2-yl)-amino)-1-oxo-3-phenylpropan-2-yl)carbamate] | – | – | – | – | – | 37 ± 2 µM | kinact/KI ([2]; 25° C.): 22 M⁻¹ s⁻¹ and 21.7 ± 0.8 M⁻¹ s⁻¹
9 | Cc1cc(=O)oc2cc(NC(=O)C(CCc3ccccc3)NC(=O)C(CCCN=C(N)N)NC(=O)OCc3ccccc3)ccc12 (stereo not drawn) [Compound S10, Cbz-Arg-hPhe-AMC] | 6.8 µM | 4.9 s⁻¹ and 4.9 ± 0.1 s⁻¹ | 700000 ± 40000 M⁻¹ s⁻¹ | 0.51 | – | – | –
10 | Cc1cc(=O)oc2cc(NC(=O)[C@H](CCCN=C(N)N)NC(=O)[C@H](CC(C)C)NC(=O)OCc3ccccc3)ccc12 [Compound S4, Cbz-Leu-Arg-AMC] | 2.2 ± 0.3 µM | 8.4 ± 0.4 s⁻¹ | 3.8e+06 ± 700000 M⁻¹ s⁻¹ | 0.88 | – | – | –
11 | O=C(N[C@@H](Cc1ccccc1)C(=O)N[C@H](/C=C/c1ccncc1)Cc1ccccc1)OCc1ccccc1 [Compound 21, Benzyl ((S)-1-Oxo-3-phenyl-1-(((S,E)-1-phenyl-4-(pyridin-4-yl)-but-3-en-2-yl)amino)propan-2-yl)carbamate] | – | – | – | – | 5.5 ± 0.2 µM | – | –
12 | N—((S)-1-(((2S,3S)-3-hydroxy-1,2,3,4-tetrahydronaphthalen-2-yl)amino)-1-oxo-3-phenylpropan-2-yl)-4-methylpiperazine-1-carboxamide and N—((S)-1-(((2R,3R)-3-hydroxy-1,2,3,4-tetrahydronaphthalen-2-yl)amino)-1-oxo-3-phenylpropan-2-yl)-4-methylpiperazine-1-carboxamide [Compound 50] | – | – | – | – | > 100 µM | – | Ki [2, 5]: > 100 µM
13 | Cc1cc(=O)oc2cc(NC(=O)[C@H](CCc3ccccc3)NC(=O)[C@H](Cc3ccncc3)NC(=O)OCc3ccccc3)ccc12 [Compound S8, Cbz-(4-Pyr)Ala-hPhe-AMC] (Cbz-[4Pal]-[hPhe]-{AMC}) | 4.6 µM | 5.3 s⁻¹ and 5.3 ± 0.2 s⁻¹ | 1.1e+06 ± 100000 M⁻¹ s⁻¹ | 0.55 | – | – | –
14 | Cc1cc(=O)oc2cc(NC(=O)C(CCc3ccccc3)NC(=O)C(CC(C)C)NC(=O)OCc3ccccc3)ccc12 (stereo not drawn) [Compound S3, Cbz-Leu-hPhe-AMC] (Cbz-Leu-[hPhe]-{AMC}; configuration not given here) | 0.8 ± 0.2 µM | 3.0 ± 0.2 s⁻¹ | 4e+06 ± 1e+06 M⁻¹ s⁻¹ | 0.21 | – | – | –
15 | C[n+]1ccc(/C=C/[C@H](Cc2ccccc2)NC(=O)[C@H](Cc2ccccc2)NC(=O)OCc2ccccc2)cc1 [Compound 22, 4-((S,E)-3-((S)-2-(((Benzyloxy)carbonyl)amino)-3-phenylpropanamido)-4-phenylbut-1-en-1-yl)-1-methylpyridin-1-ium Iodide] | – | – | – | – | 4 ± 0.1 µM | 92 ± 5 µM | –
16 | CC(C)C[C@H](NC(=O)OCc1ccccc1)C(=O)N[C@H](/C=C/c1ccccn1)CCc1ccccc1 [Compound 18, Benzyl ((S)-4-Methyl-1-oxo-1-(((S,E)-5-phenyl-1-(pyridin-2-yl)-pent-1-en-3-yl)amino)pentan-2-yl)carbamate] | – | – | – | – | 1.42 µM | 7.8 ± 0.6 µM | –
17 | C[C@@H](/C=C/c1ccccn1)NC(=O)[C@H](Cc1ccccc1)NC(=O)OCc1ccccc1 [Compound 19, Benzyl ((S)-1-Oxo-3-phenyl-1-(((S,E)-4-(pyridin-2-yl)but-3-en-2-yl)amino)propan-2-yl)carbamate] | – | – | – | – | 4.8 ± 0.2 µM | – | –
18 | Cc1cc(=O)oc2cc(NC(=O)C(Cc3ccncc3)NC(=O)C(Cc3ccccc3)NC(=O)OCc3ccccc3)ccc12 (stereo not drawn) [Compound S5, Cbz-Phe-(4-Pyr)Ala-AMC] (Cbz-Phe-[4Pal]-{AMC}; configuration not given here) | 3.7 µM | 7.5 ± 0.5 s⁻¹ | 2e+06 ± 400000 M⁻¹ s⁻¹ | 0.76 | – | – | –
19 | Cc1cc(=O)oc2cc(NC(=O)[C@H](Cc3ccccc3)NC(=O)[C@H](Cc3ccccc3)NC(=O)N3CCN(C)CC3)ccc12 [Compound S11, NMePip-Phe-Phe-AMC] | 14 ± 4 µM | 2.8 ± 0.06 s⁻¹ | 200000 ± 40000 M⁻¹ s⁻¹ | 0.29 | – | – | –
20 | Cc1cc(=O)oc2cc(NC(=O)[C@H](CCc3ccccc3)NC(=O)[C@H](Cc3ccccc3)NC(=O)OCc3ccccc3)ccc12 [Compound S2, Cbz-Phe-hPhe-AMC] (Cbz-Phe-[hPhe]-{AMC}) | 0.26 ± 0.06 µM | 2.0 ± 0.2 s⁻¹ | 8e+06 M⁻¹ s⁻¹ and 8e+06 ± 2e+06 M⁻¹ s⁻¹ | 0.21 | – | – | –
